What follows are molecules tested against T1, Endothelin-converting enzyme 1 (Homo sapiens) (UniProt P42892) (assay: (§1) Tested for inhibitory concentration against human Endothelin-converting enzyme 1 at 10 uM).
T1 sequence (whole entry): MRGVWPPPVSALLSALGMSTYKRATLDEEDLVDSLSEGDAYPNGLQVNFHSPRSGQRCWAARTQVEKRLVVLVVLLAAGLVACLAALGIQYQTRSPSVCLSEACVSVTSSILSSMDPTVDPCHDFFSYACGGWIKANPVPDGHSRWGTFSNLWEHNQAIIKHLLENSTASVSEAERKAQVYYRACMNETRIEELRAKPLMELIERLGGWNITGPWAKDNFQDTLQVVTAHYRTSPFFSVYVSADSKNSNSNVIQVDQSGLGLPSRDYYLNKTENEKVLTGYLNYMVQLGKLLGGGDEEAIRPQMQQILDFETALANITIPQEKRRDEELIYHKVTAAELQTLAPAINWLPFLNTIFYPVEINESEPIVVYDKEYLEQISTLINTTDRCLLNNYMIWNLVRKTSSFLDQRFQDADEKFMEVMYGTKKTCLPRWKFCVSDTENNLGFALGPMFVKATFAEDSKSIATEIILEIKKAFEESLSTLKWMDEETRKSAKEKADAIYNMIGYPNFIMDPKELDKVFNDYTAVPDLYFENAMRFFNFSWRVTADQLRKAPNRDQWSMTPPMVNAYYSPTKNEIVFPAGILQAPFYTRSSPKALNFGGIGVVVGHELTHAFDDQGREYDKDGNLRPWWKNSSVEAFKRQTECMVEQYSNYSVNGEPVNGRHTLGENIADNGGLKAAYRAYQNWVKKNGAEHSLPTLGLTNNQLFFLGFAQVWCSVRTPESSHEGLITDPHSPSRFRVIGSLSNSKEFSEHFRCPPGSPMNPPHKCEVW

inhibition | Structure (SMILES)
28% | CSc1nnc([C@@H]2C[C@@H](S)CN2S(=O)(=O)N(C)C)n1-c1ccccc1
43% | CSc1nnc([C@@H]2C[C@@H](S)CN2S(=O)(=O)c2ccc3ccccc3c2)n1C

What follows are molecules tested against T2, Endothelin-converting enzyme 1 (Homo sapiens, UniProt P42892) (assay: as §1).
T2 sequence (P42892 whole entry): T1 sequence (whole entry)

IC50 | Structure (SMILES)
280 nM | CCCSc1nnc([C@@H]2C[C@@H](S)CN2S(=O)(=O)c2ccc3ccccc3c2)n1-c1ccccc1
4400 nM | CSc1nnc([C@@H]2C[C@@H](S)CN2S(=O)(=O)c2ccc(C)cc2)n1-c1ccccc1
15500 nM | CSc1nnc([C@@H]2C[C@@H](S)CN2S(C)(=O)=O)n1-c1ccccc1
1200 nM | CCCc1ccc(S(=O)(=O)N2C[C@H](S)C[C@H]2c2nnc(SC)n2-c2ccccc2)cc1
1200 nM | CSc1nnc([C@@H]2C[C@@H](S)CN2S(=O)(=O)c2ccc3ccccc3c2)n1-c1ccc(F)c(Cl)c1
17700 nM | CSc1nnc([C@@H]2C[C@@H](S)CN2C(=O)Nc2ccc(F)cc2)n1-c1ccccc1
1300 nM | CSc1nnc([C@@H]2C[C@@H](S)CN2S(=O)(=O)c2ccc(C(F)(F)F)cc2)n1-c1ccccc1
700 nM | O=S(=O)(c1ccc2ccccc2c1)N1C[C@H](S)C[C@H]1c1nnc(SCC2CC2)n1-c1ccccc1
150 nM | CSc1nnc([C@@H]2C[C@@H](S)CN2S(=O)(=O)c2ccc3ccccc3c2)n1Cc1ccc(F)cc1
250 nM | CSc1nnc([C@@H]2C[C@@H](S)CN2S(=O)(=O)c2ccc3ccccc3c2)n1-c1c(F)c(F)cc(F)c1F
500 nM | CSc1nnc([C@@H]2C[C@@H](S)CN2S(=O)(=O)c2ccc3ccccc3c2)n1-c1ccccc1
2700 nM | CCCCOC(=O)N1C[C@H](S)C[C@H]1c1nnc(SC)n1-c1ccccc1
1200 nM | CSc1nnc([C@@H]2C[C@@H](S)CN2S(=O)(=O)c2ccc(Cl)cc2)n1-c1ccccc1
8950 nM | CSc1nnc([C@@H]2C[C@@H](S)CN2S(=O)(=O)c2ccc(F)cc2)n1-c1ccccc1
360 nM | CSc1nnc([C@@H]2C[C@@H](S)CN2S(=O)(=O)c2ccc3ccccc3c2)n1-c1ccc(C(F)(F)F)cc1
720 nM | CC(C)CSc1nnc([C@@H]2C[C@@H](S)CN2S(=O)(=O)c2ccc3ccccc3c2)n1-c1ccccc1

From ChEMBL document CHEMBL1135166, “Synthesis of triazole-Tethered pyrrolidine libraries: novel ECE inhibitors” (Bioorg Med Chem Lett, 2002)
